According to patent US9546153B2, “Bicyclic heterocycle substituted pyridyl compounds useful as kinase modulators” (BRISTOL-MYERS SQUIBB COMPANY, priority 2012, dated 2017):
pIC50: −log10 of the molar value. Read-outs that look alike come from different tables or passages of the source.

Key:
IRAK4 = IRAK4 (Homo sapiens (Human), UniProt Q9NWZ3); test: IRAK4 Inhibition Assay; type: biochemical; conditions: ATP 500 μM; IRAK4 0.6 nM; 60 min at room temperature
Procedure: The assays were performed in U-bottom 384-well plates. […] The reaction was initiated by the combination of IRAK4 with substrates and test compounds. The reaction was incubated at room temperature for 60 min. and terminated by adding 45 μL of 35 mM EDTA to each sample. The reaction mixture was analyzed on the Caliper LABCHIP® 3000 (Caliper, Hopkinton, Mass.) by electrophoretic separation of the fluorescent substrate and phosphorylated product.

[1] = system: TLR2 induced IL-6 in peripheral blood mononuclear cells (PBMCs); test: PBMC TLR2 Induced IL-6 Assay; type: cell-based, human; conditions: human PBMCs, 10 μg/ml lipoteichoic acid for 5 hours, IL-6 by ELISA, value without asterisk, read-out: Cell IC50
How it was run: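 IL-6 ELISA of supernatants after a 5 h challenge with the TLR2 agonist lipoteichoic acid (10 μg/ml). Before stimulation, human PBMCs (250000 cells/well; RPMI, 10% heat-inactivated FCS) received compound for 30 min at 37° C. Values given as IC50 or EC50.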

IRAK4, sequence (Q9NWZ3 whole entry, species assumed): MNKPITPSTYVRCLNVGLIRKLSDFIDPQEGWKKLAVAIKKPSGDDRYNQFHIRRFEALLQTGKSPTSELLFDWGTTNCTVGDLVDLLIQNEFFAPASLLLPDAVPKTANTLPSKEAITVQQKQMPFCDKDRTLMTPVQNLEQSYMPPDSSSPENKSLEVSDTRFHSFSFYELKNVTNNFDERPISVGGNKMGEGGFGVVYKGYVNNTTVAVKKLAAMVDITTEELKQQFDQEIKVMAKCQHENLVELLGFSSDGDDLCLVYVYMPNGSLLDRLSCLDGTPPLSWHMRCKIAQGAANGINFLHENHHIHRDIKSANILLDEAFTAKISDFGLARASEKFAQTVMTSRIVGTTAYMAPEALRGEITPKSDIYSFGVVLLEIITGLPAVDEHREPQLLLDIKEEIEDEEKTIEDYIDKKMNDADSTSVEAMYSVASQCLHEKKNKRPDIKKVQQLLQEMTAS

Row | SMILES | pIC50 (IRAK4) | pIC50 [1] | pIC50 ([1]; Homo sapiens, PBMC, 5 h)
1 | CC1COCCC1Nc1cc(Nc2ccc3ncsc3c2)ncc1C(=O)NC[C@@H](F)C(C)(C)O (stereo partly drawn) [Example 232] | 7.45 | 6.16 | –
2 | CC1COCCC1Nc1cc(Nc2ccc3ncsc3c2)ncc1C(=O)NC[C@@H](F)C(C)(C)O (stereo partly drawn) [Example 233] | 8.13 | 6.33 | –
3 | CC(C)(O)[C@H](F)CNC(=O)c1cnc(Nc2ccc3ncsc3c2)cc1NC1COCCC1F (stereo partly drawn) [Example 235] | 8.77 | – | 6.58
4 | CC(C)(O)[C@H](F)CNC(=O)c1cnc(Nc2ccn3nccc3n2)cc1NC1CC1 [Example 236] | 8.33 | – | 6.46
5 | CC(C)(O)[C@H](F)CNC(=O)c1cnc(Nc2ccn3nccc3n2)cc1NC1CCOCC1 [Example 237] | 8.51 | – | 6.65
6 | CC(C)Nc1cc(Nc2ccn3ncc(Cl)c3n2)ncc1C(=O)NC[C@@H](F)C(C)(C)O [Example 243] | 8.26 | 6.25 | –
7 | CC(C)Nc1cc(Nc2ccn3ncc(F)c3n2)ncc1C(=O)NC[C@@H](F)C(C)(C)O [Example 244] | 8.72 | – | 6.81
8 | CC(C)(O)[C@H](F)CNC(=O)c1cnc(Nc2ccn3nccc3n2)cc1NC1CCCC1F (stereo partly drawn) [Example 245] | 8.55 | – | 6.41
9 | CC(C)(O)[C@H](F)CNC(=O)c1cnc(Nc2ccn3nccc3n2)cc1NC1CCCC1F (stereo partly drawn) [Example 246] | 8.26 | 6.58 | –
10 | CC(C)(O)[C@H](F)CNC(=O)c1cnc(Nc2ccn3nccc3n2)cc1NC1CCC(F)C1 (stereo partly drawn) [Example 247] | 8.57 | 6.77 | –
11 | CC(C)(O)[C@H](F)CNC(=O)c1cnc(Nc2ccn3nccc3n2)cc1NC1CCC(F)C1 (stereo partly drawn) [Example 248] | 8.51 | 6.75 | –
12 | CC(C)(O)[C@H](F)CNC(=O)c1cnc(Nc2ccn3ncc(F)c3n2)cc1NC1CC1 [Example 251] | 8.49 | – | 6.43
13 | CC(C)(O)[C@H](F)CNC(=O)c1cnc(Nc2ccn3ncc(F)c3n2)cc1NC1CCC1 [Example 252] | 8.38 | – | 6.76
14 | CC(C)(F)CNc1cc(Nc2ccn3nccc3n2)ncc1C(=O)NC[C@@H](F)C(C)(C)O [Example 253] | 8.28 | – | 6.51
15 | CC(C)(O)[C@H](F)CNC(=O)c1cnc(Nc2ccn3nccc3n2)cc1NC1CCC(F)C1 (stereo partly drawn) [Example 254] | 8.60 | 6.88 | –
16 | CC(C)(O)[C@H](F)CNC(=O)c1cnc(Nc2ccn3nccc3n2)cc1NC1CCC(F)C1 (stereo partly drawn) [Example 255] | 8.62 | 7.07 | –
17 | CC(C)(O)[C@H](F)CNC(=O)c1cnc(Nc2ccn3nccc3n2)cc1NC1COCCC1F (stereo partly drawn) [Example 256] | 8.06 | – | 6.23
18 | CC(C)(F)CNc1cc(Nc2ccn3ncc(F)c3n2)ncc1C(=O)NC[C@@H](F)C(C)(C)O [Example 257] | 8.51 | – | 6.49
19 | CC(C)Nc1cc(Nc2ccn3ncc(C#N)c3n2)ncc1C(=O)NC[C@@H](F)C(C)(C)O [Example 261] | 8.44 | – | 6.90
20 | CC(C)Nc1cc(Nc2ccn3ncc(Cl)c3n2)ncc1C(=O)NC[C@@H](F)C(C)(C)O [Example 262] | 8.54 | 6.85 | –
21 | CC(C)(O)[C@H](F)CNC(=O)c1cnc(Nc2ccn3nccc3n2)cc1NC1CC(F)C1 (stereo partly drawn) [Example 263] | 8.38 | – | 6.72
22 | CC(C)(F)CNc1cc(Nc2ccn3ncc(Cl)c3n2)ncc1C(=O)NC[C@@H](F)C(C)(C)O [Example 264] | 8.34 | – | 6.42
23 | CC(C)(O)[C@H](F)CNC(=O)c1cnc(Nc2ccn3ncc(F)c3n2)cc1NC1CC(F)(F)C1 [Example 265] | 8.48 | – | 6.66
24 | Cc1cc2nc(Nc3cc(NC4CCC(F)C4)c(C(=O)NC[C@@H](F)C(C)(C)O)cn3)ccn2n1 (stereo partly drawn) [Example 267] | 8.13 | – | 6.33
25 | Cc1cc2nc(Nc3cc(NC4CCC(F)C4)c(C(=O)NC[C@@H](F)C(C)(C)O)cn3)ccn2n1 (stereo partly drawn) [Example 268] | 8.21 | 6.42 | –
26 | CC(C)(O)[C@H](F)CNC(=O)c1cnc(Nc2ccc3nccn3n2)cc1NC1CCC1 [Example 272] | 8.32 | – | 6.76
27 | CC(C)(O)[C@H](F)CNC(=O)c1cnc(Nc2ccc3nccn3n2)cc1NC1CCCC1F (stereo partly drawn) [Example 273] | 8.62 | – | 6.12
28 | CC(C)(O)[C@H](F)CNC(=O)c1cnc(Nc2ccc3nccn3n2)cc1NC1CCCC1F (stereo partly drawn) [Example 274] | 8.55 | 6.15 | –

Continued, in another order:

Row | pIC50 (IRAK4) | SMILES | pIC50 [1] | pIC50 ([1]; Homo sapiens, PBMC, 5 h)
29 | 8.51 | CC(C)(C)CNc1cc(Nc2ccc3nccn3n2)ncc1C(=O)NC[C@@H](F)C(C)(C)O [Example 275] | – | 6.47
30 | 8.44 | Cc1cnc2ccc(Nc3cc(NC(C)C)c(C(=O)NC[C@@H](F)C(C)(C)O)cn3)nn12 [Example 277] | – | 6.74
31 | 7.97 | Cc1cn2nc(Nc3cc(NC4CC4)c(C(=O)NC[C@@H](F)C(C)(C)O)cn3)ccc2n1 [Example 278] | – | 6.21
32 | 8.40 | CC(C)(O)[C@H](F)CNC(=O)c1cnc(Nc2ccc3nccn3n2)cc1NC1CCOCC1 [Example 279] | – | 6.53
33 | 8.57 | CC(C)(O)[C@H](F)CNC(=O)c1cnc(Nc2ccc3nccn3n2)cc1NC1CCC(F)C1 (stereo partly drawn) [Example 280] | 6.90 | –
34 | 8.92 | CC(C)(O)[C@H](F)CNC(=O)c1cnc(Nc2ccc3nccn3n2)cc1NC1CCC(F)C1 (stereo partly drawn) [Example 281] | 6.45 | –
35 | 7.94 | O=C(NC1CCC(O)CC1)c1cnc(Nc2ccc3nccn3n2)cc1NC1CCC1 (stereo not drawn) [Example 282] | – | 6.34
36 | 8.02 | CC(C)(O)C(F)(F)CNC(=O)c1cnc(Nc2ccc3nccn3n2)cc1NC1CC1 [Example 283] | – | 6.38
37 | 8.15 | CC(C)(O)[C@H](F)CNC(=O)c1cnc(Nc2ccc3nccn3n2)cc1NC1CCOCC1F (stereo partly drawn) [Example 285] | – | 6.29
38 | 8.28 | CC(C)Nc1cc(Nc2ccn3nccc3c2)ncc1C(=O)NC[C@@H](F)C(C)(C)O [Example 286] | – | 6.38
39 | 8.21 | CC(C)(O)[C@H](F)CNC(=O)c1cnc(Nc2ccn3nccc3c2)cc1NC1CCC(F)C1 (stereo partly drawn) [Example 287] | – | 6.17
40 | 9.00 | CC(C)Nc1cc(Nc2ccn3ncc(F)c3c2)ncc1C(=O)NC[C@@H](F)C(C)(C)O [Example 288] | – | 6.87
41 | 8.21 | CC(C)CNc1cc(Nc2ccn3nccc3c2)ncc1C(=O)NC[C@@H](F)C(C)(C)O [Example 289] | – | 6.30
42 | 7.94 | CC(C)(O)[C@H](F)CNC(=O)c1cnc(Nc2ccn3nccc3c2)cc1NCC1CC1 [Example 290] | – | 6.22
43 | 8.15 | CC(C)(C)Nc1cc(Nc2ccn3nccc3c2)ncc1C(=O)NC[C@@H](F)C(C)(C)O [Example 291] | – | 6.55
44 | 8.15 | CC(C)(O)[C@H](F)CNC(=O)c1cnc(Nc2ccn3nccc3c2)cc1NCCC1CC1 [Example 292] | – | 6.37

Row | pIC50 (IRAK4) | SMILES | pIC50 [1] | pIC50 ([1]; Homo sapiens, PBMC, 5 h)
45 | 8.74 | CC(C)(O)[C@H](F)CNC(=O)c1cnc(Nc2ccn3nccc3c2)cc1NC1CCC(F)(F)C1 (stereo partly drawn) [Example 293] | – | 6.51
46 | 8.33 | CC(C)(F)CNc1cc(Nc2ccn3nccc3c2)ncc1C(=O)NC[C@@H](F)C(C)(C)O [Example 294] | – | 6.38
47 | 8.32 | CC(C)Nc1cc(Nc2ccn3ncc(Cl)c3c2)ncc1C(=O)NC[C@@H](F)C(C)(C)O [Example 295] | – | 6.35
48 | 8.15 | CC(C)(O)[C@H](F)CNC(=O)c1cnc(Nc2ccn3nccc3c2)cc1NC1CC(F)C1 (stereo partly drawn) [Example 296] | – | 6.42
49 | 8.24 | CC(C)(O)[C@H](F)CNC(=O)c1cnc(Nc2ccn3nccc3c2)cc1NC1CCCC1(F)F (stereo partly drawn) [Example 297] | – | 6.27
50 | 8.10 | CC(C)(O)[C@H](F)CNC(=O)c1cnc(Nc2ccn3nccc3c2)cc1NC1CCOCC1F (stereo partly drawn) [Example 298] | – | 6.22
51 | 8.77 | CC(C)(O)[C@H](F)CNC(=O)c1cnc(Nc2ccn3nccc3c2)cc1NC1CCC(F)(F)C1 (stereo partly drawn) [Example 299] | 6.38 | –
52 | 8.36 | Cc1nn2ccc(Nc3cc(NCC(C)(C)F)c(C(=O)NC[C@@H](F)C(C)(C)O)cn3)cc2c1F [Example 300] | – | 6.53
53 | 8.51 | CC(C)(F)CNc1cc(Nc2ccn3ncc(F)c3c2)ncc1C(=O)NC[C@@H](F)C(C)(C)O [Example 301] | – | 6.72
54 | 8.25 | CCC(C)Nc1cc(Nc2ccn3nccc3c2)ncc1C(=O)NC[C@@H](F)C(C)(C)O (stereo partly drawn) [Example 302] | – | 6.37
55 | 9.30 | CC(C)(O)[C@H](F)CNC(=O)c1cnc(Nc2ccc3ncsc3n2)cc1NC1CC1 [Example 308] | – | 6.84
56 | 8.72 | CC(C)Nc1cc(Nc2ccc3ncsc3n2)ncc1C(=O)NC[C@@H](F)C(C)(C)O [Example 309] | – | 7.21
57 | 8.72 | CC(C)(O)[C@H](F)CNC(=O)c1cnc(Nc2ccc3ncsc3n2)cc1NCC(F)(F)F [Example 310] | – | 6.76
58 | 8.62 | CCNc1cc(Nc2ccc3ncsc3n2)ncc1C(=O)NC[C@@H](F)C(C)(C)O [Example 311] | – | 7.09
59 | 9.00 | CC(C)(O)[C@H](F)CNC(=O)c1cnc(Nc2ccc3ncsc3n2)cc1NC1CCOCC1 [Example 312] | – | 7.54
60 | 8.47 | CC(C)Nc1cc(Nc2ccc3ncsc3n2)ncc1C(=O)NCC(F)(F)C(C)(C)O [Example 313] | – | 7.14
